Consider 23 molecules from patent publication US20250332173A1, “COMPOUNDS AND METHODS FOR MODULATING NUCLEIC ACID SPLICING” (REMIX THERAPEUTICS INC., priority 2021, published 2025).

What all share (type): cell-based, human
The test system of one assay is MYB. The assay can be described thus: HiBiT protein abundance assay, MYB HiBiT K562 cell line. The conditions noted are these: HiBiT K562 cell line, 24 hours, top dose 10 μM; read-out: Effect on protein abundance, MYB (IC50 category). In short, it runs like this: (§1)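 Endogenous targets in K562 knock-in lines carried a HiBiT tag and were treated for 24 h at 37 °C with 10-point 3-fold dilutions (top 10 μM final, DMSO ≤0.25%). Abundance was read as lytic Nano-Glo HiBiT luminescence. IC50 came from a four-parameter logistic fit of normalized response.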
For orientation: HiBiT is a short tag that completes a luciferase, so light tracks the accessible tagged protein.

Another assay concerns HTT. The assay can be described thus: HiBiT protein abundance assay, HTT HiBiT K562 cell line. The conditions noted are these: HiBiT K562 cell line, 24 hours, top dose 10 μM; read-out: Effect on protein abundance, HTT (IC50 category). In short, it runs like this:
as §1

In the next assay the test system is Target C. Put plainly: HiBiT protein abundance assay, Target C (Promega Nano-Glo HiBiT Lytic Detection System, knock-in K562 cell line). The conditions noted are these: HiBiT K562 cell line, 24 hours, top dose 10 μM, read-out: Effect on protein abundance, Target C (IC50 category). In short, it runs like this:
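HiBiT knock-in K562 cells (10,000/well) were treated for 24 h at 37 °C with a 10-point 3-fold dilution series, top final concentration 10 μM, DMSO ≤0.25%. Lytic HiBiT luminescence was read, normalized to unmodified K562 and DMSO-treated controls, and IC50 was interpolated from a four-parameter logistic fit.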

Like-named read-outs stand apart in the source and are kept apart here.

By IC50 is commonly meant the concentration that inhibits the measured activity by half.

`Cc1cn2nc(-c3cc(F)c4c(=O)n(C5CCNCC5)cnc4c3)cc(C)c2n1` [Compound 243]: the half-maximal inhibitory concentration (IC50) in the assay with MYB is < 100 nM; in the assay on HTT it was < 100 nM; in the assay with Target C (Homo sapiens, K562, 24 h), < 100 nM.

`Cc1cn2cc(-c3ccc4c(=O)n(C5CCNCC5)cnc4c3)c(C)cc2n1` [Compound 244]: the IC50 is > 10000 nM in the assay on MYB; > 10000 nM with HTT; > 10000 nM with Target C (Homo sapiens, K562, 24 h).

For the molecule `Cc1nc2c(F)cc(-c3ccc4c(=O)n(C5CCNCC5)cnc4c3)cc2o1` [Compound 245], the IC50 in the assay with MYB fell in the range of 100 to 1000 nM; with HTT it was 100 to 1000 nM; in the assay with Target C (Homo sapiens, K562, 24 h) it was 100 to 1000 nM.

Turning to `Cc1cn2cc(-c3ccc4c(=O)n(C5CCN(C)CC5)cnc4c3)c(C)cc2n1` [Compound 246], the IC50 in the assay on MYB lay in the range of 1000 to 10000 nM; with HTT, 1000 to 10000 nM; with Target C (Homo sapiens, K562, 24 h) it was 1000 to 10000 nM.

Regarding `Cc1cn2cc(-c3ccc4c(c3)CCN(C3CCNCC3)C4=O)cc(F)c2n1` [Compound 247], the IC50 with MYB was in the range of 100 to 1000 nM; with HTT, 100 to 1000 nM; with Target C (Homo sapiens, K562, 24 h), 1000 to 10000 nM.

Consider `Cc1cn2cc(-c3ccc4c(=O)n(C5CCNCC5)ncc4c3)cc(F)c2n1` [Compound 248], for which the IC50 is < 100 nM with MYB; < 100 nM with HTT; 100 to 1000 nM in the assay with Target C (Homo sapiens, K562, 24 h).

For `Cn1cc2cc(-c3ccc4c(=O)n(C5CCNCC5)ncc4c3)cc(F)c2n1` [Compound 249], the IC50 lay in the range of 1000 to 10000 nM in the assay on MYB; 1000 to 10000 nM with HTT; 1000 to 10000 nM with Target C (Homo sapiens, K562, 24 h).

`Cc1nc2c(F)cc(-c3ccc4c(=O)n(C5CCNCC5)ncc4c3)cc2o1` [Compound 250]: the concentration for half-maximal inhibition (IC50) with MYB was < 100 nM; in the assay with HTT, < 100 nM; with Target C (Homo sapiens, K562, 24 h) it was 100 to 1000 nM.

With `Cc1cc(-c2ccc3c(=O)n(C4CCNCC4)ncc3c2)cc2cn(C)nc12` [Compound 251], the IC50 with MYB was 100 to 1000 nM; in the assay with HTT it was 100 to 1000 nM; in the assay on Target C (Homo sapiens, K562, 24 h), 100 to 1000 nM.

As for `Cc1cn2cc(-c3ccc4c(c3)CCN(C3CCNCC3)C4=O)cc(C(F)(F)F)c2n1` [Compound 252], the IC50 was 1000 to 10000 nM in the assay with MYB; > 10000 nM in the assay on HTT; > 10000 nM with Target C (Homo sapiens, K562, 24 h).

Take `Cc1nc2c(F)cc(-c3ccc4c(=O)n(C5CCNCC5)ncc4c3)cc2s1` [Compound 253]: the 50% inhibitory concentration (IC50) with MYB was in the range of 1000 to 10000 nM; with HTT, 1000 to 10000 nM; with Target C (Homo sapiens, K562, 24 h), 1000 to 10000 nM.

Regarding `Cc1cn2cc(-c3ccc4c(=O)n(C5CCNCC5)ncc4c3)c(C)cc2n1` [Compound 254], the IC50 with MYB fell in the range of 1000 to 10000 nM; with HTT it was 1000 to 10000 nM; in the assay with Target C (Homo sapiens, K562, 24 h), 1000 to 10000 nM.

Regarding `Cc1cn2cc(-c3ccc4c(=O)n(C5CCNCC5)ncc4c3)ncc2n1` [Compound 255], the IC50 in the assay with MYB is > 10000 nM; in the assay on HTT, > 10000 nM; in the assay with Target C (Homo sapiens, K562, 24 h), > 10000 nM.

Take `Cc1cn2cc(-c3ccc4c(=O)n(C5CCNCC5)ncc4c3)cc(Cl)c2n1` [Compound 256]: the IC50 with MYB lay within 100 to 1000 nM; in the assay with HTT, 100 to 1000 nM; with Target C (Homo sapiens, K562, 24 h), 100 to 1000 nM.

Consider `Cc1cn2cc(-c3ccc4c(=O)n(C5CCNCC5)ncc4c3)cc(C)c2n1` [Compound 257], for which the IC50 with MYB was 100 to 1000 nM; in the assay with HTT, 100 to 1000 nM; in the assay with Target C (Homo sapiens, K562, 24 h), 100 to 1000 nM.

`Cc1cn2nc(-c3ccc4c(=O)n(C5CCNCC5)ncc4c3)nc2c(C)n1` [Compound 259]: the IC50 with MYB was in the range of 100 to 1000 nM; with HTT, 100 to 1000 nM; with Target C (Homo sapiens, K562, 24 h), 100 to 1000 nM.

On to `Cc1cn2nc(-c3ccc4c(=O)n(C5CCNCC5)ncc4c3)cc2c(C)n1` [Compound 260], for which the IC50 in the assay on MYB is 100 to 1000 nM; in the assay with HTT it was 100 to 1000 nM; with Target C (Homo sapiens, K562, 24 h) it was 1000 to 10000 nM.

Take `O=c1c2ccc(-c3cn[nH]c3)cc2cnn1C1CCNCC1` [Compound 261]: the IC50 was > 10000 nM in the assay with MYB; > 10000 nM in the assay on HTT; > 10000 nM in the assay with Target C (Homo sapiens, K562, 24 h).

Take `Cc1cn2cc(-c3ccc4c(=O)n(C5CCNCC5)ncc4c3)cc(C(F)(F)F)c2n1` [Compound 262]: the IC50 was 100 to 1000 nM in the assay on MYB; 1000 to 10000 nM in the assay on HTT; 1000 to 10000 nM with Target C (Homo sapiens, K562, 24 h).

In the case of `Cn1cc2ccc(-c3ccc4c(=O)n(C5CCNCC5)ncc4c3)cc2n1` [Compound 263], the IC50 with MYB was > 10000 nM; with HTT, > 10000 nM; in the assay with Target C (Homo sapiens, K562, 24 h) it was 1000 to 10000 nM.

Take `Cc1cn2nc(-c3ccc4c(=O)n(C5CCNC5)ncc4c3)cc(C)c2n1` (stereo not drawn) [Compound 264]: the IC50 in the assay with MYB was 1000 to 10000 nM; in the assay on HTT, 1000 to 10000 nM; in the assay with Target C (Homo sapiens, K562, 24 h), > 10000 nM.

For `Cc1cn2nc(-c3ccc4c(=O)n(C5CCN(C)CC5)ncc4c3)cc(C)c2n1` [Compound 265], the IC50 is 100 to 1000 nM in the assay with MYB; < 100 nM in the assay with HTT; 100 to 1000 nM in the assay with Target C (Homo sapiens, K562, 24 h).

Turning to `Cc1cn2nc(-c3ccc4c(=O)n([C@@H]5CCNC6(CC6)C5)cnc4c3)cc(C)c2n1` [Compound 444], the IC50 was 100 to 1000 nM in the assay with MYB, < 100 nM in the assay on HTT and 100 to 1000 nM with Target C.
